According to patent US20170296550A1, “ARYL SULTAM DERIVATIVES AS RORc MODULATORS” (Genentech, Inc., priority 2013, published 2017):

Target: T1, RORc (Homo sapiens, UniProt P51449)
T1 construct: host or cells: E. coli
T1 sequence (P51449 269-508 limits assumed): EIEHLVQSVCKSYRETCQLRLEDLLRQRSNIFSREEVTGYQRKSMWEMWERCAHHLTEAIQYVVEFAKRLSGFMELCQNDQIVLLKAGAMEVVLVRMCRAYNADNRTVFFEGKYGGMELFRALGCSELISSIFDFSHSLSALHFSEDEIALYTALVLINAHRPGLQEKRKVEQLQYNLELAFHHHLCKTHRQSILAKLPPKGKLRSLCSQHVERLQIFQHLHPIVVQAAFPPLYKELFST
Experiment: In Vitro RORc Ligand Binding Assay (25-[3H]hydroxycholesterol radioligand, filter plate)
Details: RORc ligand binding domain 0.6 ug/mL; 6 nM 25-[3H]hydroxycholesterol; 3 h at 25° C.
Method: Example 68 In Vitro RORc Ligand Binding Assay
This assay was used to determine a compound's potency in inhibiting activity of RORc by determining, Kiapp, IC50, or percent inhibition values.
On day of the assay, 100 uL of 0.05% CHAPS (in deionized H2O) was added to all wells of the GFB Unifilter plate and allowed soak for 1 h. A wash buffer of 50 mM HEPES (pH 7.4), 150 mM NaCl, and 5 mM MgCl2 was prepared to wash the filter plate. To prepare an assay buffer, BSA was added to the wash buffer to reach 0.01% and DTT was added to reach 1 mM.
For IC50 mode, 10 mM compound stocks were serially diluted in DMSO with DMSO to give 20× required final concentration in DMSO (15 uL compound+30 uL DMSO). The 20× compound stocks were diluted in DMSO with Assay Buffer 4-fold to reach 5× the final test concentration in 25% DMSO (10 uL compound+30 uL Assay Buffer). Solutions were mixed by aspiration several times with a pipette set on 50 uL volume. For the assay, 10 uL of 5× compound stock solutions in 25% DMSO were added to the assay plate in duplicate.
For two point screening, 10 mM stock compound solutions were diluted in DMSO to obtain 200 uM (20× the high test concentration) and then diluted 10-fold further to reach 20 uM (20× the low test concentration). The 20× stocks were diluted 4-fold with Assay Buffer (10 uL compound+30 uL Assay Buffer) to reach 5× the test concentrations (50 uM and 5 uM) and 10 uL were added to two assay plates for the duplicate wells. With each concentration tested on 2 plates, each set of 80 compounds used 4 assay plates (1 uM and 10 uM, with n=2).
25-hydroxycholesterol (1 uM) was used to determine the level of NSB signal is prepared in DMSO as for compounds above, then diluted in Assay Buffer to give a final concentration of 5 uM. For 25-hydroxycholesterol in 25% DMSO/75% Assay Buffer; 10 uL per well was used for NSB samples. Wells for Total Binding and No Receptor sample determination contained 10 uL of 25% DMSO/75% Assay Buffer per well.
Radioligand (25-[^3H]hydroxycholesterol) Preparation
25-[^3H]hydroxycholesterol was dilute in Assay Buffer to obtain 15 nM and vortex to mix. Add 20 uL to all wells to reach 6 nM final in the assay.
Stock receptor solution was diluted in assay buffer to obtain 1.5 ug/mL in Assay Buffer. 20 uL was added to all wells. For No R samples, 20 uL Assay Buffer was substituted for receptor solution.
Assay plates were 96-well polypropylene V-bottom plates. 10 uL of 5× compound in 25% DMSO/75% Assay Buffer was added to Test wells. 10 uL of 25% DMSO/75% Assay Buffer was added to Total Binding or No Receptor wells. 10 uL of 5 uM 25-hydroxycholesterol in 25% DMSO/75% Assay Buffer was added to NSB wells. 20 uL of 15 nM 25-[^3H]hydroxycholesterol prepared in Assay Buffer was added to all wells. 20 uL of 1.5 ug/mL RORc receptor was added to wells (or […] Assay Buffer to No R wells). Following addition to the wells, the plates were incubated 3 h at 25° C.
Using a Packard Filtermate Harvester, the filter plate were washed 4 times following transfer of the incubated samples. Plates were dry-filtered completely (2 h at 50° C. or overnight at room temperature). 50 uL Microscint 0 was added to all wells and read on Topcount protocol Inverted.
Final concentrations were as follows: 50 mM HEPES buffer (pH 7.4); 150 mM NaCl; 1 mM DTT; 5 mM MgCl2; 0.01% BSA; 5% DMSO; 0.6 ug/mL RORc receptor; 6 nM 25-[^3H]hydroxycholesterol. For NSB wells, 1 uM 25-hydroxycholesterol was also present.

IC50 [nM]	Compound
69	CCS(=O)(=O)c1ccc(-c2ccc(CN3[C@@H](C)CCC(c4ccccc4)S3(=O)=O)c(F)c2)cc1 (stereo partly drawn) [Example 59, (3S)-2-(4′-Ethanesulfonyl-3-fluoro-biphenyl-4-ylmethyl)-3-methyl-6-phenyl-[1,2]thiazinane 1,1-dioxide]
151	Cc1noc(C)c1COc1ccc(CN2[C@@H](C)CCC(c3ccccc3)S2(=O)=O)cc1 (stereo partly drawn) [Example 60, (3S)-2-[4-(3,5-Dimethyl-isoxazol-4-ylmethoxy)-benzyl]-3-methyl-6-phenyl-[1,2]thiazinane 1,1-dioxide]
